Measured values published in patent publication US11008572B2, “Methods and compositions for modulating splicing” (SKYHAWK THERAPEUTICS, INC., priority 2017, dated 2021).

Test: Maximum tolerable dose study
Assay type: in vivo
Details: mice, 3 per group
Procedure: Survival of mice after administration of SMSMs after 10 or 11 days was assessed.
Tolerance of the drug treatments was determined by measuring the weight of the mice during the period of drug administration. Body weight was measured prior to tumor inoculation and prior to the treatment administration and then daily. The changes in the final weight of the mice for the SMSM treatments were determined.

Measured: Outcome

CN(c1ccc(-c2ccc(-c3cn[nH]c3)cc2O)nn1)[C@H]1C[C@]2(C)CC[C@](C)(C1)N2 [compound 151, 2-(6-(((1R,3s,5S)-1,5-dimethyl-8-azabicyclo[3.2.1]octan-3-yl)(methyl)amino)pyridazin-3-yl)-5-(1H-pyrazol-4-yl)phenol]
All survived: IP 1 mg/kg QDx11 | PO 10 mg/kg BIDx11 | PO 10 mg/kg QDx11
